Experimental data taken from patent US8278086B2, “Enhancement of vanadium-containing phosphatase inhibitors” (Roche Diagnostics Operations, Inc., priority 2007, dated 2012).

Tests used:
[1] = system: phosphatases in insect cell (SF9) lysate; assay: Inhibition of phosphatases in insect cell lysate; type: biochemical; conditions: 1 mM orthovanadate (alone or with 27 mM mannitol), FIG. 4
Description: 270 mg insect cells (SF9) were collected, washed 3 times with 50 mM Hepes, 50 mM NaCl pH 7.0 and lysed using 2.5 ml M-Per (Pierce) for 10 min. After centrifugation the lysate was collected as the supernatant.
(§1) Subsequently, an aliquot of 10 μl was transferred from each mixture into a well of a microwell plate. 5 μl of a solution of a test peptide (R-R-L-I-E-D-A-E-pY-A-A-R-G (SEQ ID NO: 1); 1 mM in water) and 10 μl of a buffer containing 0.1 mM CaCl2, 50 mM Tris pH 7.0 were added to each well and incubated for 30 min at 37° C. Free phosphate resulting from the enzymatic hydrolysis was then detected via addition of 100 μl of a 1 M HCl solution additionally containing 0.034% [w/v] malachite green, 10 mM sodium molybdate and 3.4% [v/v] ethanol. The detection was performed for 10 min at RT while constantly agitating the microwell plate. Relative concentrations of free phosphate were detected following the determination of the extinction (620 nm) of each reaction well.

[2] = system: phosphatase; conditions: in the presence of complex-forming reagents like EDTA; cited from earlier work
[3] = system: phosphatases in COS7 cell lysate; assay: Inhibition of phosphatases in COS7 cell lysate; type: biochemical; conditions: 1 mM orthovanadate (alone or with 27 mM mannitol), FIG. 5
Description: COS7 cells were collected, washed 3 times with 50 mM Hepes, 50 mM NaCl pH 7.0 and lysed using 5 ml M-Per (Pierce) for 10 min. After centrifugation the lysate was collected as the supernatant.
as §1, with “to” for “into a well of”, “1M” for “1 M”, “3.4” for “3.4%”

In the case of `[O]=[V]([O-])([O-])[O-]` [Na3VO4, orthovanadate], the “phosphatase activity (residual)” value [1] is given as 14%, the “factor by which the phosphatase inhibiting effect is reduced” value [2] is given as “about 1,000” and the “phosphatase activity (residual)” value [3] is given as 52%.
